Usually EC50 stands for the concentration giving half of the maximal effect. Higher therefore signals a less potent agent.

27 compounds from patent publication US10011615B2, “Heterobicyclo-substituted [1,2,4]triazolo[1,5-c]quinazolin-5-amine compounds with A2A anatagonist properties” (Merck Sharp & Dohme Corp., priority 2012, dated 2018) can be followed below.

This experiment deals with T1, human A2a receptor (Homo sapiens, UniProt P29274).
T1 construct: purchased Perkin-Elmer RBHA2AM400UA; host or cells: HEK293 cell membranes
T1 sequence (P29274 whole entry): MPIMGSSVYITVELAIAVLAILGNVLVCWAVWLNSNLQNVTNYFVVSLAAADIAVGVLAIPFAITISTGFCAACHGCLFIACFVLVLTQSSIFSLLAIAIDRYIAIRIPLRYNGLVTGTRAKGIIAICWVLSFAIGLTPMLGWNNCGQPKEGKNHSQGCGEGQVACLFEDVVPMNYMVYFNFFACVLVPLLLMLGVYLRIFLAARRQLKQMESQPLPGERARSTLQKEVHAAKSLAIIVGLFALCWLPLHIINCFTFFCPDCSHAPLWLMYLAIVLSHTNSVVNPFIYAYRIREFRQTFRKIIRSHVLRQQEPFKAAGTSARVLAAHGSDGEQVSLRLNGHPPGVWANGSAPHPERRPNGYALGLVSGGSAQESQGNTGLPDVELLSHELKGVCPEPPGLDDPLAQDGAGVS
Kind of experiment: A2a receptor competition binding assay using Scintillation Proximity technology. The note with it: membranes from HEK293 cells expressing human A2a receptor; 0.5 nM tritiated radioligand; SPA beads; 1 h room temperature. The procedure, abridged: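 Membranes of HEK293 cells expressing human A2a, pretreated with adenosine deaminase, incubated 1 h at room temperature with 0.5 nM tritiated pyrazolotriazolopyrimidine antagonist (final) and compound (3000 to 0.15 nM) on WGA SPA beads in Ca/Mg-free PBS with 10 mM MgCl2. Ki from EC50 via Cheng-Prusoff.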
As for `COc1cccc2c1nc(N)n1nc(CCN3Cc4ccccc4C3)nc21` [Ex-24, 2-(2-(isoindolin-2-yl)ethyl)-7-methoxy-[1,2,4]triazolo[1,5-c]quinazolin-5-amine], the EC50 was found to be 11.1 nM. Compound `Nc1nc2cc(F)ccc2c2nc(CCN3CCCc4ccccc43)nn12` [Ex-94] registered a concentration giving a half-maximal response (EC50) of 27.3 nM. `COc1cccc2c1nc(N)n1nc(CN3CCCc4ccccc4C3)nc21` [Ex-132, 2-((4,5-dihydro-1H-benzo[c]azepin-2(3H)-yl)methyl)-7-methoxy-[1,2,4]triazolo[1,5-c]quinazolin-5-amine] yielded a concentration for a half-maximal effect (EC50) of 7.9 nM. Regarding `COc1cccc2c1nc(N)n1nc(CCN3CCc4c(sc(C5CC5)c4C#N)C3)nc21` [Ex-15, 6-(2-(5-amino-7-methoxy-[1,2,4]triazolo[1,5-c]quinazolin-2-yl)ethyl)-2-cyc1opropyl-4,5,6,7-tetrahydrothieno[2,3-c]pyridine-3-carbonitri1e], the half-maximal effective concentration (EC50) was determined as 2.2 nM. Regarding `CC[C@H](Cc1nc2c3cccc(OC)c3nc(N)n2n1)N1Cc2nc(C)oc2C1` [Ex-248, (R)-7-methoxy-2-(2-(2-methyl-4H-pyrrolo[3,4-d]oxazol-5(6H)-yl)butyl)-[1,2,4]triazolo[1,5-c]quinazolin-5-amine], it took 1 nM to reach a half-maximal effect (EC50). `COc1cccc2c1nc(N)n1nc(CN3CCCc4ncccc43)nc21` [Ex-133, 2-((3,4-dihydro-1,5-naphthyridin-1(2H)-yl)methyl)-7-methoxy-[1,2,4]triazolo[1,5-c]quinazolin-5-amine]: the EC50 was determined as 27.8 nM. For `COc1cccc2c1nc(N)n1nc(CCN3Cc4ccc(N5C[C@@H](C)O[C@@H](C)C5)nc4C3)nc21` [Ex-69], the midpoint of the response, the EC50, lay at 5.2 nM. As for `COc1cccc2c1nc(N)n1nc(CCN3CCc4ncncc4C3)nc21` [Ex-54, 2-(2-(7,8-dihydropyrido[4,3-d]pyrimidin-6(5H)-yl)ethyl)-7-methoxy-[1,2,4]triazolo[1,5-c]quinazolin-5-amine], the figure is 4 nM; as for `COc1cccc2c1nc(N)n1nc(CN3CCc4c(Br)ccnc4C3)nc21` [Ex-148], 7.2 nM; as for `COc1cccc2c1nc(N)n1nc(CN3CCc4cccc(CN5CCN(c6ccccn6)CC5)c4C3)nc21` [Ex-126, 7-methoxy-2-((8-((4-(pyridin-2-yl)piperazin-1-yl)methyl)-3,4-dihydroisoquinolin-2(1H)-yl)methyl)-[1,2,4]triazolo[1,5-c]quinazolin-5-amine], 31.6 nM. `COc1cccc2c1nc(N)n1nc(CCN3CCn4c(cnc4C(C)C)C3)nc21` [Ex-8, 2-(2-(3-isopropyl-5,6-dihydroimidazo[1,5-a]pyrazin-7(8H)-yl)ethyl)-7-methoxy-[1,2,4]triazolo[1,5-c]quinazolin-5-amine]: the EC50 amounted to 2.2 nM.

Regarding `COc1cc(F)cc2c1nc(N)n1nc(CCN3Cc4cccnc4C3)nc21` [Ex-98], the EC50 is 19 nM. `COc1cccc2c1nc(N)n1nc(CCN3CCc4c(C5CC5)n[nH]c4C3)nc21` [Ex-40, 2-(2-(3-cyclopropyl-4,5-dihydro-1H-pyrazolo[3,4-c]pyridin-6(7H)-yl)ethyl)-7-methoxy-[1,2,4]triazolo[1,5-c]quinazolin-5-amine] had a 50% effective concentration (EC50) of 1.1 nM. The value for `COc1cccc2c1nc(N)n1nc(CN3CCc4ccc(CC(=O)Nc5cccnc5)cc4C3)nc21` [Ex-173, 2-(2-((5-amino-7-methoxy-[1,2,4]triazolo[1,5-c]quinazolin-2-yl)methyl)-1,2,3,4-tetrahydroisoquinolin-7-yl)-N-(pyridine-3-yt)acetamide] was 9.1 nM; that for `COc1cccc2c1nc(N)n1nc(CN3CCCc4cccnc43)nc21` [Ex-161, 2-((3,4-dihydro-1,8-naphthyridin-1(2H)-yl)methyl)-7-methoxy-[1,2,4]triazolo[1,5-c]quinazolin-5-amine] was 2.1 nM. `COc1cccc2c1nc(N)n1nc(CCN3Cc4nc(C5CC5)oc4C3)nc21` [Ex-245]: the concentration giving a half-maximal response (EC50) stood at 1 nM. As for `COc1cccc2c1nc(N)n1nc(CCN3Cc4nc(C)sc4C3)nc21` [Ex-14, 7-methoxy-2-(2-(2-methyl-4H-pyrrolo[3,4-d]thiazol-5(6H)-yl)ethyl)-[1,2,4]triazolo[1,5-c]quinazolin-5-amine], it took 1.5 nM to reach a half-maximal effect (EC50). The compound `COc1cccc2c1nc(N)n1nc(CN3CCc4cc(F)ccc4C3)nc21` [Ex-130, 2-((6-fluoro-3,4-dihydroisoquinolin-2(1H)-yl)methyl)-7-methoxy-[1,2,4]triazolo[1,5-c]quinazolin-5-amine] registered an EC50 of 20.5 nM. The compound `COc1cccc2c1nc(N)n1nc(CCN3Cc4ccc(N5CCOCC5)nc4C3)nc21` [Ex-64] came in with an EC50 of 6.9 nM. For the compound `COc1cccc2c1nc(N)n1nc(CN3Cc4ccc(F)cc4C3)nc21` [Ex-117, 2-((5-fluoroisoindolin-2-yl)methyl)-7-methoxy-[1,2,4]triazolo[1,5-c]quinazolin-5-amine], the half-maximal effective concentration (EC50) stood at 5.9 nM. The value for `COc1cccc2c1nc(N)n1nc(CN3CCc4nccnc4C3)nc21` [Ex-150, 2-((7,8-dihydropyrido[4,3-b]pyrazin-6(5H)-yl)methyl)-7-methoxy-[1,2,4]triazolo[1,5-c]quinazolin-5-amine] was 27.6 nM; that for `COc1cccc2c1nc(N)n1nc(CN3CCN(C)Cc4cc(Cl)ccc43)nc21` [Ex-136, 2-((7-chloro-4-methyl-2,3,4,5-tetrahydro-1H-benzo[e][1,4]diazepin-1-yl)methyl)-7-methoxy-[1,2,4]triazolo[1,5-c]quinazolin-5-amine] was 191 nM. Compound `COc1cccc2c1nc(N)n1nc(CCCN3Cc4ccc(F)cc4C3)nc21` [Ex-229] displayed a concentration giving a half-maximal response (EC50) of 14.8 nM.

Compound `COc1cccc2c1nc(N)n1nc(CCN3Cc4ccc(N5CCN(C)CC5)nc4C3)nc21` [Ex-63, 7-methoxy-2-(2-(2-(4-methylpiperazin-1-yl)-5H-pyrrolo[3,4-b]pyridin-6(7H)-yl)ethyl)-[1,2,4]triazolo[1,5-c]quinazolin-5-amine] showed an EC50 of 5.8 nM. `COc1cc(F)cc2c1nc(N)n1nc(CN3Cc4cccnc4C3)nc21` [Ex-164, 2-((5H-pyrrolo[3,4-b]pyridin-6(7H)-yl)methyl)-9-fluoro-7-methoxy-[1,2,4]triazolo[1,5-c]quinazolin-5-amine] registered a half-maximal effective concentration (EC50) of 8.6 nM. With `COc1cccc2c1nc(N)n1nc(CN3CCc4ccc(-c5cnc(C(F)(F)F)nc5)cc4C3)nc21` [Ex-179, 7-methoxy-2-((7-(2-(trifluoromethyl)pydmidin-5-yl)-3,4-dihydroisoquinolin-2(1H)-yl)methyl)-[1,2,4]triazolo[1,5-c]quinazolin-5-amine], a half-maximal response (EC50) required 6.1 nM.

`COc1cccc2c1nc(N)n1nc(C[C@@H](N3Cc4cccnc4C3)C(F)(F)F)nc21` [Ex-110] gave an EC50 of 39.9 nM.
